In this test the target is T1, Activin receptor type-1 (Homo sapiens, UniProt Q04771).
T1 sequence (Q04771 whole entry): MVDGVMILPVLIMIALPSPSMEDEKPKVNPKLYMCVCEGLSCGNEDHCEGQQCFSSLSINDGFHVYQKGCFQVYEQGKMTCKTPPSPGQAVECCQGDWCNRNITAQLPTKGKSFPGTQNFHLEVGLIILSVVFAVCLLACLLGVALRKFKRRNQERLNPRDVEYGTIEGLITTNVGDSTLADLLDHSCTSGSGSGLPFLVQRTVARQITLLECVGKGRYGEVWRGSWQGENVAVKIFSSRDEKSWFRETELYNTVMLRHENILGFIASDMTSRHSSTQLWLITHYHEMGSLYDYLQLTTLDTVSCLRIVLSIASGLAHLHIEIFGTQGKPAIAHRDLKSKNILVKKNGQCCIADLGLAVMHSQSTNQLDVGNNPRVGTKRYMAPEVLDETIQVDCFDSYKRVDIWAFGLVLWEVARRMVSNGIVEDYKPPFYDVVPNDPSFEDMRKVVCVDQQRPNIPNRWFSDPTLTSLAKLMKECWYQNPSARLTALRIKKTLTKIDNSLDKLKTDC
As to the kind of experiment: ALK1-6 enzymatic assays: Specifically, compounds were assayed using LANCE® Ultra ULight¿ technology (Perkin Elmer) against human ALK1-6 enzymes (ALK1: Life Technologies, ALK2-6: Carna Biosciences). Briefly, ALK enzyme (10 nM) was prepared in kinase buffer (50 mM HEPES, pH 7.5, 10 mM MgCl2, […], 0.005% Tween-20 and 2 mM DTT) and dispensed at 2.5 μL/well into a 1536 well, white, solid …. A general note: In TR-FRET formats the signal depends on donor and acceptor labels being close together.

By IC50 is commonly meant the concentration needed to halve the response being measured. Low values mean greater potency in that assay, high ones weaker potency in that assay. As to `Cc1cc(-c2cnn3cc(-c4ccc(C5CCNCC5)cc4)cnc23)c2ccccc2n1`, the IC50 was determined as 23 nM. In other words, the double-digit nanomolar range.

For the origin of these results see ChEMBL document CHEMBL5725340, “BMP inhibitors and methods of use thereof” (2017).
